According to the NIST ThermoML archive (doi:10.1021/acs.jced.5b00892):

Conditions: Liquid, Gas chromatography

CCCCCCCC/C=C\CCCOC(C)=O [(Z)-tridec-4-enyl acetate]
Conditions	vapor or sublimation pressure [kPa]
298 K	0.00012
310 K	0.00042
320 K	0.0011
330 K	0.0028
340 K	0.0065
350 K	0.0142
360 K	0.029
370 K	0.058
380 K	0.11
390 K	0.2
400 K	0.34
410 K	0.57
420 K	0.92
430 K	1.5
440 K	2.2
450 K	3.3
460 K	4.8
470 K	6.9
480 K	9.6
490 K	13
500 K	18

CCOC(=O)/C=C(C)/C=C/C[C@@H](C)CCCC(C)C [ethyl (S,2E,4E)-3,7,11-trimethyldodeca-2,4-dienoate]
Conditions	vapor or sublimation pressure [kPa]
298.15 K	1.4e-05
310 K	5.7e-05
320 K	0.00017
330 K	0.00047
340 K	0.0012
350 K	0.0029
360 K	0.0065
370 K	0.014
380 K	0.028
390 K	0.054
400 K	0.1
410 K	0.18
420 K	0.3
430 K	0.5
440 K	0.81
450 K	1.3
460 K	1.9
470 K	2.8
480 K	4.1
490 K	5.8
500 K	8

C#CCOC(=O)/C=C(C)/C=C/CC(C)CCCC(C)C (configuration not stated) [prop-2-ynyl (2E,4E)-3,7,11-trimethyldodeca-2,4-dienoate]
Conditions	vapor or sublimation pressure [kPa]
298.15 K	4.2e-06
310 K	1.9e-05
320 K	6.1e-05
330 K	0.00018
340 K	0.00049
350 K	0.0012
360 K	0.0029
370 K	0.0065
380 K	0.014
390 K	0.028
400 K	0.053
410 K	0.098
420 K	0.17
430 K	0.29
440 K	0.49
450 K	0.78
460 K	1.2
470 K	1.8
480 K	2.7
490 K	3.9
500 K	5.5

CCC/C=C\CCCCCCCOC(C)=O [(Z)-dodec-8-enyl acetate]
Conditions	vapor or sublimation pressure [kPa]
298 K	0.00027
310 K	0.00091
320 K	0.0023
330 K	0.0056
340 K	0.013
350 K	0.027
360 K	0.053
370 K	0.1
380 K	0.19
390 K	0.33
400 K	0.56
410 K	0.93
420 K	1.5
430 K	2.3
440 K	3.5
450 K	5.1
460 K	7.3
470 K	10
480 K	14.1
490 K	19
500 K	25

CC/C=C/CCCCCCCCCCOC(C)=O [(E)-tetradec-11-enyl acetate]
Conditions	vapor or sublimation pressure [kPa]
298.15 K	2.8e-05
310 K	0.00011
320 K	0.00032
330 K	0.00086
340 K	0.0021
350 K	0.0049
360 K	0.011
370 K	0.022
380 K	0.044
390 K	0.084
400 K	0.15
410 K	0.27
420 K	0.45
430 K	0.73
440 K	1.2
450 K	1.8
460 K	2.7
470 K	3.9
480 K	5.6
490 K	7.8
500 K	11

CCCC/C=C\CCCCCCCCCCCCOC(C)=O [(Z)-octadec-13-en-1-yl acetate]
Conditions	vapor or sublimation pressure [kPa]
298.15 K	4.1e-07
310 K	2.2e-06
320 K	8.2e-06
330 K	2.7e-05
340 K	8.3e-05
350 K	0.00023
360 K	0.00061
370 K	0.0015
380 K	0.0034
390 K	0.0074
400 K	0.015
410 K	0.03
420 K	0.056
430 K	0.1
440 K	0.18
450 K	0.3
460 K	0.48
470 K	0.76
480 K	1.2
490 K	1.7
500 K	2.5

CC/C=C/C=C/CCCCCCCCOC(C)=O [(9E,11E)-tetradeca-9,11-dienyl acetate]
Conditions	vapor or sublimation pressure [kPa]
298.15 K	1.5e-05
310 K	6.3e-05
320 K	0.00019
330 K	0.00051
340 K	0.0013
350 K	0.0031
360 K	0.007
370 K	0.015
380 K	0.03
390 K	0.058
400 K	0.11
410 K	0.19
420 K	0.33
430 K	0.54
440 K	0.87
450 K	1.4
460 K	2.1
470 K	3
480 K	4.4
490 K	6.2
500 K	8.6
